Laboratory results: US9301965B2, “Method of treating ovarian cancer using a PKC inhibitor” (University of South Florida, priority 2014, dated 2016)
Values joined by “and” are separate entries in the source; they are usually repeats but may differ in a detail not shown here. Identical values can stand only once.

Key:
PKC-ζ = target: T1, PKC-ζ (Homo sapiens, UniProt Q05513); details: cited from earlier work
T1 sequence (Q05513 1-592): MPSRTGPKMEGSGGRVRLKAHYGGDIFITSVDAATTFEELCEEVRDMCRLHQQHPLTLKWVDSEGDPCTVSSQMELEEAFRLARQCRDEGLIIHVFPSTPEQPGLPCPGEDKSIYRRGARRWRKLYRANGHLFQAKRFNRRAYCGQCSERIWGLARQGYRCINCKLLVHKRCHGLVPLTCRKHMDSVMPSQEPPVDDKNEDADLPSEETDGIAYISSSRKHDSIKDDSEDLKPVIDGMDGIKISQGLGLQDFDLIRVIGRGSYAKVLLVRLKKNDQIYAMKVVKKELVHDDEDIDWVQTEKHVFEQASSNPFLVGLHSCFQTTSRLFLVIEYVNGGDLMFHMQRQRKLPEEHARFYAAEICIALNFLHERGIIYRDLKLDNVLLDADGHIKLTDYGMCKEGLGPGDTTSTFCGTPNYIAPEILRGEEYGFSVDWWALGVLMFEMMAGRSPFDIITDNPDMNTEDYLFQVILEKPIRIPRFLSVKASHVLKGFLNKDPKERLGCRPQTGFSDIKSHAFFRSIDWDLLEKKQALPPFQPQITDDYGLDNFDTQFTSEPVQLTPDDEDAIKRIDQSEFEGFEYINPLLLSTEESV

PKC-ι [1] = target: T2, PKC-ι (Homo sapiens, UniProt P41743); details: cited from earlier work
T2 sequence (P41743 1-596): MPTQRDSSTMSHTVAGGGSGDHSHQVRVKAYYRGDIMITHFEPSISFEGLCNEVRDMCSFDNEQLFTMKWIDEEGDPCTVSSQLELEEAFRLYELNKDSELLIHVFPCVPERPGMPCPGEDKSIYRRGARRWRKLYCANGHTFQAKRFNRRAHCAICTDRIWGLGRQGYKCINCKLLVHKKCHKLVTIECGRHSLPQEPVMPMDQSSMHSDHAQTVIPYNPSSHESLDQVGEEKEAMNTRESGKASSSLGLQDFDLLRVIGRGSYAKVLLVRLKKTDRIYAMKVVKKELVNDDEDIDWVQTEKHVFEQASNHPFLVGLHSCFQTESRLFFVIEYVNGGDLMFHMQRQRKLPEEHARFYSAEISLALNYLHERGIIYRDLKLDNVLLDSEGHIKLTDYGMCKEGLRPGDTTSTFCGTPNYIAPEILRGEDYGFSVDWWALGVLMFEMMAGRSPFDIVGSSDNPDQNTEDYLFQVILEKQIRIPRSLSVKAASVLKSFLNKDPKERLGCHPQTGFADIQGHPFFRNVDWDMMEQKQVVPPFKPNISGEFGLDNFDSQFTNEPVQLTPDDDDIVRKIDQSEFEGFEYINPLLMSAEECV

PKC-ε = target: T3, PKC-ε (Homo sapiens, UniProt Q02156); details: cited from earlier work
T3 sequence (Q02156 1-737): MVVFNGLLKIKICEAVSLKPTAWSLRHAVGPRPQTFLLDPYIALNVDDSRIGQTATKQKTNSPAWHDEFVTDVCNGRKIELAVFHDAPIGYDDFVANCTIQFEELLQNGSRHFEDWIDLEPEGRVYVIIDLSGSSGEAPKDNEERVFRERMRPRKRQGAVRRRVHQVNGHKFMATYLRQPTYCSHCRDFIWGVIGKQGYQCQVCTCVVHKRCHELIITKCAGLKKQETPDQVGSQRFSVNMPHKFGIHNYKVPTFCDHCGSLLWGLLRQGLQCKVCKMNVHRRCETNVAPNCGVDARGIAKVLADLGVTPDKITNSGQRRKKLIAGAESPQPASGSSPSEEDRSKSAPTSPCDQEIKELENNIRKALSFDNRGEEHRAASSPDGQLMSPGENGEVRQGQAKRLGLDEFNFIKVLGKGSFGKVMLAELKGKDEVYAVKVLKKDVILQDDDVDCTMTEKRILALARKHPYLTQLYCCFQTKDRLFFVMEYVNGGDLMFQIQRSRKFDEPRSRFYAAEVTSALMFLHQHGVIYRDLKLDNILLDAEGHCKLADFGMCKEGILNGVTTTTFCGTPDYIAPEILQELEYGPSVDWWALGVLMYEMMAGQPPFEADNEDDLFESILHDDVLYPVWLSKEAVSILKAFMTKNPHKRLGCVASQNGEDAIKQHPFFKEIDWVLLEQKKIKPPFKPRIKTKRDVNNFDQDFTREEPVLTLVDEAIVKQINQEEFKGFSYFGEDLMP

PKC-α = PKC-α (Homo sapiens, UniProt P17252); details: cited from earlier work
PKC-β = PKC-β (Homo sapiens, UniProt P05771); details: cited from earlier work
HEY ovarian cancer cells [2] = experiment: HEY cell proliferation, Trypan blue exclusion assay; assay type: cell-based, human
Procedure: HEY human ovarian carcinoma cells were obtained from Dr. Meera Nanjundan's laboratory at the University of South Florida. The cells were grown as a monolayer in a T25 tissue culture flask with 5 mL of growth medium and maintained in a 37° C. incubator with 5% CO2. The RPMI1640 growth medium was obtained from and American Type Culture Collection (ATCC) and Life Technologies (Carlsbad, Calif.). The medium was supplemented with 10% fetal bovine serum (FBS) and a mix of the antibiotics Penicillin (10,000 IU) and Streptomycin (10,000 μg/ml) in a 100× concentration which was purchased from Corning.
HEY cells were cultured in a T25 cell culture flask. 13,000 cells were seeded into each well in a 6-well culture plate. ACPD was weighed and dissolved in water to create a 100 mM stock solution. From this solution, serial dilutions were done to create a 1 mM stock solution which was then used for treatment. In order to assess the effect of ACPD on cell viability, three wells were treated with 2 μM ACPD while the other three wells were left untreated as controls. The treatment period was 72 hours with the growth medium being changed every 24 hours. The cells were also washed with DPBS every time the growth medium was changed. Cell viability was determined at 24, 48 and 72 hours using a Trypan blue exclusion assay where 30 μL of the cell suspension was added to 30 μL of Trypan blue. The number of unstained cells was counted using a hematocytometer. The same procedures were used for ICA-1.
The experiments were performed as per the protocol described by Patel et al. (2008), herein incorporated by reference. Briefly, cells were cultured in T75 flasks in monolayers. For treatment, 40,000 cells were seeded into T75 flasks and treated for 72 hours with ICA-1 and ACPD. The proliferation was measured each day by a Trypan Blue exclusion assay which involved staining the cells with Trypan Blue and counting them under a microscope using a hemocytometer.

HEY ovarian cancer cells [3] = experiment: Total RNA concentration of HEY cells (Rneasy Mini Kit, NanoDrop1000); assay type: cell-based, human; details: for reduction of total RNA: 2 μM
Text: RNA was isolated from the treated and untreated cells using the Rneasy Mini Kit and protocol. The total RNA concentration was estimated using the NanoDrop1000 spectrophotometer.

PKC-δ = PKC-δ (Homo sapiens, UniProt Q05655); details: cited from earlier work
PKC-ι [4] = target: T2, PKC-ι; details: cited from earlier work; remark: listed apart in the source

Chain of PKC-δ (Q05655 whole entry): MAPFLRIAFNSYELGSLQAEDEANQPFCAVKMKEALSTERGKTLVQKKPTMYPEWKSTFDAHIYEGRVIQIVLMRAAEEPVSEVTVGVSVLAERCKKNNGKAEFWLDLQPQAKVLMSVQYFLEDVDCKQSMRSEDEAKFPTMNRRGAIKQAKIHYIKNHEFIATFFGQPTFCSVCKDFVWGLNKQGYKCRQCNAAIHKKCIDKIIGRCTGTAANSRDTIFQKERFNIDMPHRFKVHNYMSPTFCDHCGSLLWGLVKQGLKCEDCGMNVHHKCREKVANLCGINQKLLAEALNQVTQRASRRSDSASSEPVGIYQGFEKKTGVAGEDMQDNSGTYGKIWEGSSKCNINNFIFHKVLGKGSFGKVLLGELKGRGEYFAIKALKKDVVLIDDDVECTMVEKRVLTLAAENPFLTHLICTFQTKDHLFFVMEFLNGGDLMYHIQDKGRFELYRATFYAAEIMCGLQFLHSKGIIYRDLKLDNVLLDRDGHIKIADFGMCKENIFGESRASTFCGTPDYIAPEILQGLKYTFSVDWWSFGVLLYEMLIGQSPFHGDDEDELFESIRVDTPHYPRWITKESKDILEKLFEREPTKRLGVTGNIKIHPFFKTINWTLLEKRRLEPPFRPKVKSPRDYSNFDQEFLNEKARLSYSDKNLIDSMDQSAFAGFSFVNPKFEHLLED
Chain of PKC-β (P05771 whole entry, species assumed): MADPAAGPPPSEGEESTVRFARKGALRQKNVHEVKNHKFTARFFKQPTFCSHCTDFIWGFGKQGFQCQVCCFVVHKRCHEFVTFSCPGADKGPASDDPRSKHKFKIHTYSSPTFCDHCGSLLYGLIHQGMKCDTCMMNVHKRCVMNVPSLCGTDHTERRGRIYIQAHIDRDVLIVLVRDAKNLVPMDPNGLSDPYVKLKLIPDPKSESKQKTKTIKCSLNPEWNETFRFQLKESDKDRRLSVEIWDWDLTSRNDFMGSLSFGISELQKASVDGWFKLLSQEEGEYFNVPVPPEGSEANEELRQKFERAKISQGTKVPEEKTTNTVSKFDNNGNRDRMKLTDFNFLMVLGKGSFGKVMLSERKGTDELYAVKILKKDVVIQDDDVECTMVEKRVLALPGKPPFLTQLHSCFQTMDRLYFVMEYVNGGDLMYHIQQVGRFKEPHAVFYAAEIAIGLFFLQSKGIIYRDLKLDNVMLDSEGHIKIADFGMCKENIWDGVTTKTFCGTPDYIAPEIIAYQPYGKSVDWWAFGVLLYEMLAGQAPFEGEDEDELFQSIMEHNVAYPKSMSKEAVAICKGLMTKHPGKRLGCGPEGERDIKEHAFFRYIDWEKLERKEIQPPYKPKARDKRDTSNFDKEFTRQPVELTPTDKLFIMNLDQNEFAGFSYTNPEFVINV

Compound | inhibition of PKC-ζ (PKC-ζ) | inhibition of PKC-ι (PKC-ι [1]) | inhibition of PKC-ε (PKC-ε) | inhibition of PKC-α (PKC-α) | inhibition of PKC-β (PKC-β) | reduction of cell proliferation (HEY ovarian cancer cells [2]; 800 nM, 72 hour treatment) [%] | reduction of cell proliferation (HEY ovarian cancer cells [2]; 1.8 μM, 72 hour treatment) [%] | reduction of cell proliferation (HEY ovarian cancer cells [2]; 2 μM, 24 hours, compared to controls) | reduction of cell proliferation (HEY ovarian cancer cells [2]; 2 μM, 48 hours) | effectiveness in inhibiting cell proliferation relative to ICA-1 (HEY ovarian cancer cells [2]; HEY ovarian cancer cells) | reduction of total RNA concentration (HEY ovarian cancer cells [3]; 1.8 μM, 72 hour treatment) [%] | reduction of total RNA (HEY ovarian cancer cells [3]; 24 hours) | reduction of total RNA (HEY ovarian cancer cells [3]; 48 hours) | reduction of total RNA (HEY ovarian cancer cells [3]; 72 hours) | inhibition of PKC-δ (PKC-δ) | binding to PKC-ι (PKC-ι [4])
CC(=O)C1=C(O)CCC1=O [ACPD, 2-acetyl-1,3-cyclopentanedione] | inhibits both PKC-ζ and PKC-ι | inhibits both PKC-ζ and PKC-ι | not PKC-α, PKC-β, PKC-δ, or PKC-ε | not PKC-α, PKC-β, PKC-δ, or PKC-ε | not PKC-α, PKC-β, PKC-δ, or PKC-ε | 16 | 28 | 82% and 81.75% | 60.5% and 60% | over five times more effective than ICA-1 | 38 | 97% and 97.4% | 52.4% and 52% | 34.3% and 34% | not PKC-α, PKC-β, PKC-δ, or PKC-ε | –
O=C([O-])CC([S][Au])C(=O)[O-] (centres unmarked) [Sodium aurothiomalate] | – | – | – | – | – | – | – | – | – | – | – | – | – | – | – | low micromolar range
OC[C@H]1O[C@H]([S][Au])[C@H](O)[C@@H](O)[C@@H]1O [aurothioglucose] | – | – | – | – | – | – | – | – | – | – | – | – | – | – | – | low micromolar range
